The values that follow come from article PMC6354011 (Scientific Reports, 2019).

Each structure is given as a SMILES string. Several values for one entry are separate records, joined by “and”; a condition that tells them apart may be missing. Equal entries are not always repeated. Where two headings read alike, the source gives them in different places.

Test [1] concerns the target T1, equine serum butyrylcholinesterase (BChE, EC 3.1.1.8) (Equus caballus, UniProt P81908).
T1 construct: equine serum butyrylcholinesterase (BChE, EC 3.1.1.8); purchased Sigma-Aldrich (USA); host or cells: equine serum
Kind of test: biochemical. Format: biochemical. As to conditions: for BChE % inhibition: single read. The text has this:
(§1) Ellman’s colorimetric method with minor modification was employed in the determination of AChE and BChE inhibitory activities. Electric eel acetylcholinesterase (AChE, EC 3.1.1.7), equine serum butyrylcholinesterase (BChE, EC 3.1.1.8), 5,5′-Dithiobis(2-nitrobenzoic acid) (DTNB) and sodium phosphate dibasic (Na2HPO4) were purchased from Sigma-Aldrich (USA). S-butyrylthiocholine chloride (BTCC) from Sigma-Aldrich (Switzerland), acetylthiocholine iodide (ATCI) from Sigma-Aldrich (United Kingdom) and sodium phosphate monobasic (NaH2PO4) from Sigma-Aldrich (Germany) were purchased. […] Ethanol was used to replace the sample as a control in this assay.

In test [2] the target is T2, Electric eel acetylcholinesterase (AChE, EC 3.1.1.7) (Electrophorus electricus, UniProt O42275).
T2 construct: purchased Sigma-Aldrich (USA)
T2 sequence (O42275 24-633): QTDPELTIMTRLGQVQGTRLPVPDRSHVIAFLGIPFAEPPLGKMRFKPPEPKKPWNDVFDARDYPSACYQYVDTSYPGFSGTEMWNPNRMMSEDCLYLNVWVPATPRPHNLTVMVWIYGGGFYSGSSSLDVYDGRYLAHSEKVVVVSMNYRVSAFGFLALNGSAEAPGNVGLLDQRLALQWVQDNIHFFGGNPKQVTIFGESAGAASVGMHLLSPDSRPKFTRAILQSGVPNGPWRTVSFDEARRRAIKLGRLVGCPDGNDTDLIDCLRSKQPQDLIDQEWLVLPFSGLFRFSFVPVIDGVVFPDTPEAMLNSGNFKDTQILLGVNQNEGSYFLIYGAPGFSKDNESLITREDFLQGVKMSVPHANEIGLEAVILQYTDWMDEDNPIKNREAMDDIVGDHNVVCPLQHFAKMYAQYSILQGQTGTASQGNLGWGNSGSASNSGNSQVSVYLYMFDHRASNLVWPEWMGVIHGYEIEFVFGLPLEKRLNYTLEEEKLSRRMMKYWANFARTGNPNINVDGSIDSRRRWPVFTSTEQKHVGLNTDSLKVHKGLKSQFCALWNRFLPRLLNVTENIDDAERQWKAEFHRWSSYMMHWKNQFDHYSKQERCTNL
Kind of test: biochemical. Particulars: for AChE % inhibition: single read.
Text: as §1

The mark [3] stands for this setting: N = 3, unit not given (µg/mL scale), read-out: BChE IC50, Tukey HSD homogeneous subsets (group mean) (converted).
The mark [4] stands for this setting: mean ± SD, n = 3, read-out: IC50 (µM) BChE.
Setting [5] is: mean ± SD, n = 3, read-out: IC50 (µM) AChE.

T1 sequence (P81908 whole entry): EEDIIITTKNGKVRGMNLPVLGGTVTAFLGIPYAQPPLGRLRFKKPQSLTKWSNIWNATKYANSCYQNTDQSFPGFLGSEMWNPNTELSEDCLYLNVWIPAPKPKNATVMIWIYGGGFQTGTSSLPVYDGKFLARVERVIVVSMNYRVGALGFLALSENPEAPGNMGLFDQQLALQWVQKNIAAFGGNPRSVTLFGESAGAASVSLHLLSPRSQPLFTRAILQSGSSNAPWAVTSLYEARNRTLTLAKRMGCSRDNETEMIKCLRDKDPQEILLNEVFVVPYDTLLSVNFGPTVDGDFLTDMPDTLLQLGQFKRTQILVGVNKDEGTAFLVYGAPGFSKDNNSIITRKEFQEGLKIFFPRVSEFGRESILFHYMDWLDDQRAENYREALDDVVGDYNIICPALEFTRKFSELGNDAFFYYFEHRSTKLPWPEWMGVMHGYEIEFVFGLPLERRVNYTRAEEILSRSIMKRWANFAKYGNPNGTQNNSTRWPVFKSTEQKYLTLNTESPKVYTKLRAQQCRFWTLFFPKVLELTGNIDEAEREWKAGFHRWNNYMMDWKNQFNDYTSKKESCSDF

Take `Cc1cccn2cc(-c3ccc(-c4ccccc4)cc3)nc12` [Compound 2g, 2-([1,1′-biphenyl]-4-yl)-8-methylimidazo[1,2-a]pyridine]: the IC50 in test [1] (setting [3]) was 315 µM; in test [1] (average of three reads, read-out: BChE IC50 (µM) Average) it was 315 µM; in test [1] (average of three reads, read-out: BChE IC50 (µg/mL) Average (converted)), 315 µM; in test [1] (first read, read-out: BChE IC50 (µM) First read), 311 µM; in test [1] (first read, read-out: BChE IC50 (µg/mL) First read (converted)) it was 310 µM; in test [1] (setting [4]) it was 315 ± 6 µM. Besides, the IC50 was 322 µM in test [1] (second read, read-out: BChE IC50 (µM) Second read); 322 µM in test [1] (second read, read-out: BChE IC50 (µg/mL) Second read (converted)); 312 µM in test [1] (third read, read-out: BChE IC50 (µM) Third read); 311 µM in test [1] (third read, read-out: BChE IC50 (µg/mL) Third read (converted)); 288 µM in test [2] (average of three reads, read-out: AChE IC50 (µM) Average); 288 µM in test [2] (average of three reads, read-out: AChE IC50 (µg/mL) Average (converted)). The IC50 is 343 µM in test [2] (first read, read-out: AChE IC50 (µM) First read); 343 µM in test [2] (first read, read-out: AChE IC50 (µg/mL) First read (converted)); 288 ± 48 µM in test [2] (setting [5]); 264 µM in test [2] (second read, read-out: AChE IC50 (µM) Second read); 263 µM in test [2] (second read, read-out: AChE IC50 (µg/mL) Second read (converted)); 258 µM in test [2] (third read, read-out: AChE IC50 (µM) Third read). In test [2] (third read, read-out: AChE IC50 (µg/mL) Third read (converted)), the IC50 is 258 µM. For the same compound, the BChE % inhibition in test [1] (conc 60 (µg/mL)) is 7.74% and 0.19% and 6.00%; in test [1] (conc 80 (µg/mL)) it was 35.59% and 45.45% and 37.33%; in test [1] (conc 90 (µg/mL)), 48.36% and 35.01% and 51.84%; in test [1] (conc 100 (µg/mL)), 61.12% and 73.89% and 66.92%; in test [1] (conc 110 (µg/mL)), 84.33% and 65.76% and 66.92%; in test [1] (conc 120 (µg/mL)) it was 106.96% and 76.79% and 121.47%. The AChE % inhibition is 66.67% and 62.62% and 65.90% in test [2] (conc 100 (µg/mL)); 81.50% and 87.67% and 85.81% in test [2] (conc 150 (µg/mL)); 83.04% and 90.94% and 100.39% in test [2] (conc 200 (µg/mL)); 106.74% and 92.10% and 107.32% in test [2] (conc 250 (µg/mL)); 140.85% and 130.64% and 128.52% in test [2] (conc 300 (µg/mL)).

Take `Cc1ccc2nc(C34CC5CC(CC(C5)C3)C4)cn2c1` [Compound 2d, 2-(adamantan-1-yl)-6-methylimidazo[1,2-a]pyridine]: the IC50 in test [1] (setting [4]) and in test [2] (setting [5]) was over 2000 µM each time.

In the case of `Clc1ccc(-c2cn3ccccc3n2)cc1Cl` [Compound 2j, 2-(3,4-dichlorophenyl)imidazo[1,2-a]pyridine], the IC50 was 75.6 µM in test [1] (setting [3]) and over 2000 µM in test [2] (setting [5]). Further, the BChE % inhibition in test [1] (conc 12.5 (µg/mL)) was 27.75% and 48.55% and 34.78%; in test [1] (conc 25 (µg/mL)) it was 50.87% and 55.49% and 62.14%; in test [1] (conc 50 (µg/mL)), 63.01% and 66.76% and 69.65%; in test [1] (conc 100 (µg/mL)) it was 91.04% and 87.86% and 90.17%.

Take `c1ccn2cc(C34CC5CC(CC(C5)C3)C4)nc2c1` [Compound 2a, 2-(adamantan-1-yl)imidazo[1,2-a]pyridine]: the IC50 in test [1] (setting [4]) and in test [2] (setting [5]) was over 2000 µM in each case.

As to `COc1ccc(-c2cn3ccccc3n2)cc1` [Compound 2l, 2-(4-methoxyphenyl)imidazo[1,2-a]pyridine], the IC50 in test [1] (setting [4]) and in test [2] (setting [5]) was over 2000 µM throughout.
